Results: patent publication US3996222A, “Piperazine derivatives” (CRC Compagnia de Ricerca Chimica, priority 1972, dated 1976)
Where a name gives a salt, the structure may show the parent alone. Read-outs that look alike come from different tables or passages of the source.

Test: toxicity per os (LD50)
Format: in vivo
Description: Furthermore, their toxicities are extremely low in comparison with previously known cytostatic and cancer retardant pharmaceuticals.

SMILES | LD50 [mg/kg] | LD50 (in vivo, po, read-out: LD50) [mg/kg]
Clc1ccc(C(c2ccccc2)N2CC[N+]3(CCOCC3)CC2)cc1.[Br-] (stereo not drawn) [X = Br, N^1-(4'-chlorobenzhydryl) -N^4-spiromorpholinopiperazinium bromide] | 308.5 | 
Clc1ccc(C(c2ccccc2)N2CC[N+]3(CCOCC3)CC2)cc1 (stereo not drawn) [X = Cl, N^1-(4'-chlorobenzhydryl)-N^4-spiro-morpholino-piperazinium chloride-hydrochloride] |  | 316
Clc1ccc(C(c2ccccc2)N2CC[N+]3(CCOCC3)CC2)cc1 (stereo not drawn) [X = I, N^1-(4'-chlorobenzhydryl)-N^4-spiromorpholinopiperazinium iodide] | 276.7 | 
